# Laboratory results as given in PubChem BioAssay AID588635 (Johns Hopkins Ion Channel Center, 2011).
# Molecular target: Potassium voltage-gated channel subfamily KQT member 2 (Rattus norvegicus) (UniProt O88943)
# Assay: PubChem AID 588635
# Settings: KCNQ2-CHO cells, manual whole-cell patch clamp current; at 0.1 µM; stronger effect = higher value
# Potassium voltage-gated channel subfamily KQT member 2 (Rattus norvegicus), sequence (O88943 whole entry, looked up): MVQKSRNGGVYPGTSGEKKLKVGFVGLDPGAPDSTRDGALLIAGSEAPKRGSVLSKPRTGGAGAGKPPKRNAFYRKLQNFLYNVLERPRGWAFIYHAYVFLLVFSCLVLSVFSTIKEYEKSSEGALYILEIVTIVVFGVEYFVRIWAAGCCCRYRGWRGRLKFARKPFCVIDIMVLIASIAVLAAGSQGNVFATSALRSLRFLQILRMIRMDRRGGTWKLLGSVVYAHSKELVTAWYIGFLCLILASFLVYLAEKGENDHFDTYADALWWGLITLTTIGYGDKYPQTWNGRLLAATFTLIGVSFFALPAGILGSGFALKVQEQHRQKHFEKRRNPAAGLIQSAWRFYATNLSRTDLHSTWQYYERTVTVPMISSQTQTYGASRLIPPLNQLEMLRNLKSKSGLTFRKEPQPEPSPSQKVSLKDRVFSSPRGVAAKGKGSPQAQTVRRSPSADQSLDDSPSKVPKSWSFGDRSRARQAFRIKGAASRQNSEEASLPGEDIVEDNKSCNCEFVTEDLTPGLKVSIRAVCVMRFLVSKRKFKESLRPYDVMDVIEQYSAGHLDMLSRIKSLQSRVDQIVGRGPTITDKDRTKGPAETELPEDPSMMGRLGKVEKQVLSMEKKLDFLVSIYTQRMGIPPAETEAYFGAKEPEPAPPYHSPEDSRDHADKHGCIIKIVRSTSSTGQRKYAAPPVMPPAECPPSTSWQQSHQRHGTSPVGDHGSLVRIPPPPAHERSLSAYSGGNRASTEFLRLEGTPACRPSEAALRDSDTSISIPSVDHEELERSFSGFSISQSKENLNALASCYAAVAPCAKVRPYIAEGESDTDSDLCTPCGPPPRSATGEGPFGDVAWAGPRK
smiles,measurement,value
CC[C@H](C(=O)Nc1ccccc1N1CCCC1)c1ccccc1,inhibition,83.4%
